Measured values: patent publication US8440670B2, “Pyridopyrazindione derivative and its use as an antiulcer drug” (Innovative Pharmacology Research OOO (IPHAR), priority 2010, dated 2013)
Read-outs that look alike come from different tables or passages of the source.

Experiments:
[1] = target: T1, H,K-ATPase of rabbit gastric mucosa (Oryctolagus cuniculus, UniProt P27112); assay: Action on enzyme activity of H,K-ATPase of rabbit gastric mucosa (inorganic phosphate from ATP hydrolysis); type: biochemical; settings: for IC50: read-out: I50, inhibition of H,K-ATPase
T1 construct: a white layer was seen on the borderline of 4% and 12% Ficoll that was a microsome fraction, enriched with H,K-ATPase; from tissue; host or cells: rabbit gastric (stomach) mucosa microsomes
T1 sequence (P27112 whole entry): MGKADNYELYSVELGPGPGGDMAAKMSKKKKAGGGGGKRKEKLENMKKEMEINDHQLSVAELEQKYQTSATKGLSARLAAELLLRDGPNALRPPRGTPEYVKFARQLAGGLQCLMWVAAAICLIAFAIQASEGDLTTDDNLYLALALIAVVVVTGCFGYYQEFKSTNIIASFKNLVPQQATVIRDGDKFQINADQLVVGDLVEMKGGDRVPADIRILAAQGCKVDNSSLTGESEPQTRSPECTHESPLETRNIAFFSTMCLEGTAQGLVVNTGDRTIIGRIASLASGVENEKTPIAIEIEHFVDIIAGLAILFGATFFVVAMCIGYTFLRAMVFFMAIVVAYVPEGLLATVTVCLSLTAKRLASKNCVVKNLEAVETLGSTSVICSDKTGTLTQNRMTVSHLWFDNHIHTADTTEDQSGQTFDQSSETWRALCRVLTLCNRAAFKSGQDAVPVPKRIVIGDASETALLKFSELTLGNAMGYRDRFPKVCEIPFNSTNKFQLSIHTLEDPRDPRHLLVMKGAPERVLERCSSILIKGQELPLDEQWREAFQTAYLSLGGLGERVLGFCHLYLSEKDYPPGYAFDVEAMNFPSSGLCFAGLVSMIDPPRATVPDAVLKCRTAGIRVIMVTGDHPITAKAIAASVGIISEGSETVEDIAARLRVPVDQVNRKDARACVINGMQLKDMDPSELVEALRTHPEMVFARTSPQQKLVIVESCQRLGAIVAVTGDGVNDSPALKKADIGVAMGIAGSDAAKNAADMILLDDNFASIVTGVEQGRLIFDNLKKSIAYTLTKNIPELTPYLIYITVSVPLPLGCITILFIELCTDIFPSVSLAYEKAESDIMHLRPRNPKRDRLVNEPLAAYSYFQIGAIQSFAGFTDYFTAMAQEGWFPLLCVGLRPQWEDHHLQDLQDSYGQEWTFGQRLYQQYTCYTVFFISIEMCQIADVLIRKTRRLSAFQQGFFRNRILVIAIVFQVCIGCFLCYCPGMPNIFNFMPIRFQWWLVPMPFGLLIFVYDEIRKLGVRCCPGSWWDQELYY
T1 sequence (P18597 whole entry partner): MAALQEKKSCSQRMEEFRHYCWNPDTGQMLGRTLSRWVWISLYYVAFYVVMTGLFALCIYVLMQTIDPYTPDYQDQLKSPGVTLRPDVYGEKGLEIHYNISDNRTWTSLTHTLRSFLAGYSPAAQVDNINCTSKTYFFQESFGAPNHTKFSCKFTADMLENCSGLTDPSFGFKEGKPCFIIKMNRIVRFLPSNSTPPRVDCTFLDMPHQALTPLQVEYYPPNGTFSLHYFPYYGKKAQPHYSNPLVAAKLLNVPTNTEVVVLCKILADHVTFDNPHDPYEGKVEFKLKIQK
Protocol: Microsome preparation, enriched with H+, K+-ATPase, was produced from the rabbit stomach mucosa using a method proposed by Farley and Faller.
Gastric mucosa was produced from a decapitated rabbit. All operations were carried out in ice. The stomach was cut at the greatest curve line, washed and scrubbed. Obtained mucosa was frozen and kept at −80° C. temperature.
To obtain a microsome preparation enriched with H,K-ATPase, gastric mucosa was defrozen and homogenized in extraction medium (0.25 mol sucrose, 5 mmol PIPES, 20 mmol Tris (THAM), ph 7.4) by a Polytron-class homogenizer (max rotations 30/sec). Mass ratio of tissue to extraction medium—1:20.
The homogenate was then centrifuged for 10 min at 10000 g. The sediment was discarded and supernatant was them centrifuged for 1 hour at 100000 g. The produced sediment was re-suspended in extraction medium (using the minimal volume necessary for re-suspension). The suspension was layered above Ficoll 400, prepared in the extraction medium: 12% Ficoll solution, 4% Ficoll solution. It was further centrifuged for 180 min at 100000 g. After centrifuging, a white layer was seen on the borderline of 4% and 12% Ficoll that was a microsome fraction, enriched with H,K-ATPase. The fraction was collected, divided into aliquots and kept at −80° C.
The effect was measured by the growth of inorganic phosphate that is produced during ATP hydrolysis. The concentration was measured using Ratbun and Betlah method. The incubation medium contained: 30 mmol imidazole, ph 7.4, 3 mmol MgCl2, 130 mmol NaCl, 20 mmol KCl, 3 mmol ATP, 2 mmol ouabain, 0.1 mmol EGTA, 2.25 μmol valinomycin, 5 mmol NaN3, 5 μmol of CCCP (Carbonyl cyanide m-chlorophenyl hydrazone).
Incubation medium and defrozen and homogenized microsome fraction were added into incubation sample. The sample was incubated for 20 min at 37° C., then the reaction was stopped by a cold stop-solution (3 mol sodium acetate, 3.7% formaldehyde, pH 4.3).
To evaluate the content of phosphate, produced during enzymatic hydrolysis of ATP, 2% ammonium molybdate solution and tin chloride solution (3 mg/ml) was into the sample. After the appearance of blue color, after 15 minutes, the samples were studied by colorimetry using wavelength of 650 nm
The H,K-ATPase activity was determined as activity inhibited by 0.1 mmol SCH-28080. […] The concentration of the studied compound was varied in range of 10^−8 to 10^−4 mol.
Possible competition between compound I and potassium ions was studied. To achieve this, the relation of H,K-ATPase and KCl concentration was studied, and then the inhibitory action of compound I on this enzyme in saturated (20 μmol) and unsaturated (2 μmol) concentrations of KCl was studied.

[2] = tested on: intestinal peristalsis; assay: Intestinal peristalsis study (activated charcoal); type: in vivo; settings: mice, given 60 minutes before activated charcoal
Protocol: 3.1. Studying intestinal peristalsis.
The studied compounds were administered to male mice (body weight 22-24 g) by a tube into the stomach 60 minutes before the administration of activated charcoal (0.3 ml of 10% suspension into the stomach). After 2 hours the animals were sacrificed by CO2 and the length of small intestine filled with charcoal was measured in cm. Control group animals were administered 0.3 ml of water, cerucal in 25 mg/kg dose was chosen as the drug of comparison.

[3] = tested on: stimulated gastric acid secretion; assay: Gastric secretion stimulated by histamine, pentagastrin and 1-aminopyrene; type: in vivo, rats; design: inhibition of 1-aminopyrene-induced secretion: concentration or dose not given beside the values
Protocol: 2.2. Studying gastric secretion stimulated by histamine, pentagastrin and 1-aminopyrene.
The study was conducted using male rats weighting 180-200 g. The animals were deprived of food for 24 hours, water access was not limited. Before putting a ligature on the pylorus, one group of animals was administered histamine (2.5 mg/kg) subcutaneously, second group was administered pentagastrin ([…]) subcutaneously, third group was administered 1-aminopyrene 1 mg/kg. The studied compound was administered in 100 mg/kg dose as water suspension, with the addition of Tween-80,
1 and 3 hours before the ligature of pylorus. Control animals were given distilled water with the addition of Tween-80. Omeprazole in 50 mg/kg dose and famotidine in 25 and 50 mg/kg doses were used as the drugs of comparison. 4 hours after the operation stomach contents were studied: secretion volume per 100 g of animal mass, gastric acid pH, free hydrochloric acid and general acidity of gastric acid.

[4] = type: in vivo
From the text: Studying the Toxicity (LD50) of Studied Compounds Following Single Administration

[5] = tested on: basal gastric acid secretion; assay: Influence on basal secretion in rats (pylorus ligature); type: in vivo
Protocol: 2.1. Studying the influence of the compound on basal secretion in rats.
The study was conducted using male rats weighting 180-200 g. The animals were deprived of food for 24 hours, water access was not limited. Using ether anesthesia their abdomens were opened and a ligature put on the pylorus. […] The studied compound was administered in 100 mg/kg dose as water suspension, with the addition of Tween-80, 60 minutes before the ligature of pylorus. Control animals were given distilled water with the addition of Tween-80. Omeprazole in 50 mg/kg dose and famotidine in 25 and 50 mg/kg doses were used as drugs of comparison.

[6] = target: H,K-ATPase (Homo sapiens, UniProt P20648); settings: K+-competitive; read-out: Ki (inhibition constant); cited from earlier work
Chain of H,K-ATPase (P20648 whole entry): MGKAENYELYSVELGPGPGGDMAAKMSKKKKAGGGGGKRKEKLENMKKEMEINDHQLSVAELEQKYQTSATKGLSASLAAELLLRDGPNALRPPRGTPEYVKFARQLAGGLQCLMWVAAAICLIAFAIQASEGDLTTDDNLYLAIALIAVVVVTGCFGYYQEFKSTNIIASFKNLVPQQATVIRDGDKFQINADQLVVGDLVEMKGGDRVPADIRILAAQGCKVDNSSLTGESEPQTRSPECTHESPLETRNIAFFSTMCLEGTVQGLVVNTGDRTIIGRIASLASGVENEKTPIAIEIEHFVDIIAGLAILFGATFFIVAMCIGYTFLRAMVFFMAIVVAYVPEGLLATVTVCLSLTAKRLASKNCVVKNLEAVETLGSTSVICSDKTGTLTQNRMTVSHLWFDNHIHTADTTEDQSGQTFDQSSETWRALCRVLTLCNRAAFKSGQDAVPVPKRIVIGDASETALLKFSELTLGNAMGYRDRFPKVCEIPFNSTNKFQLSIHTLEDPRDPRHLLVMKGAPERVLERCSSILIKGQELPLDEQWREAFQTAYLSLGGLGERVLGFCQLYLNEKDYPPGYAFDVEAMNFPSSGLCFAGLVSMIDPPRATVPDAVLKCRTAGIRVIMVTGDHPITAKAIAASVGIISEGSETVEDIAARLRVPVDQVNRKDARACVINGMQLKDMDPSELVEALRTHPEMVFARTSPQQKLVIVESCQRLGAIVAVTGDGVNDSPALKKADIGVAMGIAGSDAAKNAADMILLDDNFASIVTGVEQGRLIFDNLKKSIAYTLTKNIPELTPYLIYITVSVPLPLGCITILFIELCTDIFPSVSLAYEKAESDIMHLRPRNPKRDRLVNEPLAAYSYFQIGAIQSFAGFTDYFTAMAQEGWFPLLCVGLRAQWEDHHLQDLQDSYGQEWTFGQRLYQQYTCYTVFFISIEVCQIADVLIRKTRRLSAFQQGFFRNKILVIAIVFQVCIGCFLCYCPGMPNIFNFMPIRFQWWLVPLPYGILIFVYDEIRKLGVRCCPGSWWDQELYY
Chain of H,K-ATPase (P51164 whole entry partner): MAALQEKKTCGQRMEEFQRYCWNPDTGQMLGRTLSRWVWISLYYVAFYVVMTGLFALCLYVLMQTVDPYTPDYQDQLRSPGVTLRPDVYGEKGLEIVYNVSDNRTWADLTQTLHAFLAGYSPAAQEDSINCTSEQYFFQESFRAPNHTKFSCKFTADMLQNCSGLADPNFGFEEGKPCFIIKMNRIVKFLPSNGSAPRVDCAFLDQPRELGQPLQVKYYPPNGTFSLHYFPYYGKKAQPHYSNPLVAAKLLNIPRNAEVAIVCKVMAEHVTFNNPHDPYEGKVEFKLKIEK

Molecule | slowing of intestinal peristalsis [2] | inhibition of histamine-induced secretion ([3]; after 3 hours) [%] | inhibition of histamine-induced secretion ([3]; one hour after administration) [%] | inhibition of 1-aminopyrene-induced secretion ([3]; time not stated) | inhibition of pentagastrin-induced secretion ([3]; time not stated) | inhibition of basal secretion ([5]; after three hours) [%] | inhibition of basal secretion ([5]; one hour after administration) [%] | other results
CCOc1ccc(CCN2CC(=O)N3CCCC(C4=CC(=O)C=CC4O)=C3C2=O)cc1 (centres unmarked) [Compound I, 9-(quinonil-2)-2-p-ethoxyphenylethyl-4,5,6,7,8,9,10,11-octahydropyrido[1,2-a]pyrazindione-1,4] | does not influence peristalsis | 57 | 40 | 50% | about 54% | – | – | IC50 ([1]; 2 μmol KCl (unsaturated)): 10 µM; IC50 ([1]; 20 μmol KCl (saturated)): 1 µM; competition with K+ ions ([1]; 2 and 20 μmol KCl): does not compete with K+ ions; reversibility of effect on H,K-ATPase ([1]; dilution of enzyme-inhibitor complex): reversible; general toxicity ([4]; in vivo): low-toxic; inhibition of basal gastric acid secretion level ([5]; 100 mg/kg, time not stated): does not inhibit basal gastric acid secretion level
CNc1nc2c(C)cccc2c2c1CCN2c1ccccc1C [SK&F96356] | – | – | – | – | – | – | – | Ki [6]: 0.07 µM
NC(N)=Nc1nc(CSCCC(N)=NS(N)(=O)=O)cs1 [famotidine] | does not influence peristalsis | 95 | 90 | – | 40% | 80 | 56 | inhibition of 1-aminopyrene-induced secretion ([3]; after 1 hour): 36%; inhibition of 1-aminopyrene-induced secretion ([3]; after 3 hours): 40%
COc1ccc2[nH]c([S+]([O-])Cc3ncc(C)c(OC)c3C)nc2c1 (centres unmarked) [omeprazole] | 35% | 80 | 70 | about 90% | about 90% | 40 | 25 | general toxicity ([4]; single administration): low-toxic
SCH-28080 | – | – | – | – | – | – | – | inhibition of H,K-ATPase activity ([1]; 0.1 mmol inhibitor): about 30%
